# Laboratory results from publication PMC12156033, “N-Alkylamino Stilbene Compounds as Amyloid β Inhibitors for Alzheimer’s Disease Research” (Molecules, 2025).
# Entries after “also recorded” stand apart in the source; their conditions may differ.
# What was measured:
# [1] = Log D measurement octanol/PBS; type: physicochemical; settings: octanol / PBS pH 7.4, 10 μM, triplicate, ± SD
# Experimental: The determination of log D values for N-alkylamino multifunctional compounds was performed using a slightly modified reported procedure. The compounds (final concentration 10 μM) were added to the premix suspension containing 0.5 mL octanol and 0.5 mL octanol-saturated PBS buffer (pH = 7.4). The resulting mixture was stirred vigorously for 5 min and centrifuged at 2000 rpm for 5 min. The octanol layer was separated from the PBS layer, and the fluorescence spectrum was recorded. The remaining 0.5 mL PBS layer was partitioned with 0.5 mL PBS-saturated octanol, and the octanol layer was separated after 5 min of vigorous shaking and centrifuging. The fluorescence spectrum of the octanol layer was recorded. The log D value was calculated based on the fluorescence intensity ratio for the two octanol layers. Each experiment was completed in triplicate, and the error represents the standard deviation for the average log D values.
# [2] = Fluorescence spectra of the compounds alone in PBS; type: physicochemical; settings: excitation 380 nm; compound 5.0 µM in PBS
# Experimental: (§1) All fluorescence measurements were performed using a SpectraMax M2e plate reader (Molecular Devices, San Jose, CA, USA). The fluorescence spectra of the compounds’ solution (100 μL PBS, 5.0 µM) were recorded with excitation at 380 nm and an emission wavelength from 400 to 680 nm. To PBS solutions (100 μL) of the compounds (5.0 µM), various Aβ42 species were added, with final concentrations of 5.0 µM and 25.0 µM, and their fluorescence spectra (λmax of emission) were determined as described above.
# Aβ42 fibrils = molecular target: T1, Aβ42 fibrils (Homo sapiens, UniProt P05067); test: Fluorescence spectra of compounds with Aβ42 fibrils; type: binding; settings: excitation 380 nm; compound 5.0 µM in PBS with Aβ fibrils
# T1 construct: commercial Aβ42 peptide (AnaSpec or GL Biochem); purchased AnaSpec or GL Biochem
# Experimental: as §1
# (§2) Aβ42 powder was prepared by dissolving commercial Aβ42 peptide (AnaSpec or GL Biochem) in ammonium hydroxide solution (1%, v/v). The solution was then aliquoted out and lyophilized overnight. The resulting aliquoted powder was stored at −80 °C. Aβ42 monomers were generated by dissolving Aβ42 powder in 1,1,1,3,3,3-hexafluoro-2-propanol (HFIP, 1 mM) and incubating for 1 h at room temperature. The solution was then evaporated overnight and dried by vacuum centrifuge to result in monomeric films. Aβ42 fibrils were generated by dissolving the monomeric Aβ42 films in DMSO, diluting into the appropriate buffer, and incubating for 24 h at 37 °C with continuous agitation (final DMSO concentration was <2%). For the preparation of Aβ42 oligomers, the peptides were suspended in PBS buffer and incubated overnight at 4 °C.
# [3] = test system: Cu-Aβ42 cytotoxicity on N2a cells; test: N2a cell rescue from Cu-induced Aβ42 cytotoxicity (Alamar blue); type: cell-based, mouse; settings: [Aβ42] = [CuCl2] = 20 μM, compound 5 μM
# Experimental: Mouse neuroblastoma Neuro2A (N2A) cell lines were purchased from the American Type Culture Collection (ATCC), Manassas, VA, USA. Cells were grown in DMEM/10% FBS, which is the regular growth media for N2A cells, in a humidified atmosphere with 5% CO2 at 37 °C. N2A cells were seeded in a clear 96-well plate (2.5 × 10^4/well) with DMEM/10% FBS. The media was changed to DMEM/N-2 media 24 h later. After 1 h, the treatment reagents were added. Owing to the poor solubility of compounds in the media, the final amount of DMSO used was 1% (v/v). After an additional incubation of 40 h, Alamar Blue solution was added to each well, and the cells were incubated for 90 min at 37 °C. Fluorescence intensity was measured at 590 nm (excitation wavelength = 560 nm).
# The Alamar Blue assay was carried out as described, with the following treatment reagents: 20 μM Aβ42 species, 5 μM compounds, and 20 μM CuCl2.
# [4] = molecular target: T2, amyloid plaques in 5xFAD mice brain sections (Homo sapiens, UniProt P05067); test: Histological staining of 5xFAD mice brain sections, colocalization with HJ3.4 antibody; type: binding, mouse; settings: 11-month-old 5xFAD mice brain sections, compound 25 μM, HJ3.4 1 μg/mL
# T2 construct: the amyloid beta (Aβ) peptide that makes up amyloid plaques; tissue Jackson Laboratories; host or cells: brain sections from 11-month-old 5xFAD transgenic mice (Tg6799 line)
# Excerpt: To further investigate the affinity of the developed compounds toward various Aβ aggregates in situ, the intrinsic fluorescence properties of the compounds were employed for their ability to stain insoluble amyloid plaques. For these studies, brain sections from 11-month-old 5xFAD transgenic mice, which rapidly develop severe amyloid pathology, were co-stained with stilbenes and HJ3.4 antibody. HJ3.4 is an anti-amyloid antibody that binds to the N-terminal region of the Aβ peptide, thereby targeting both soluble and insoluble amyloid species. To evaluate the Aβ binding specificity of the compounds in vitro, brain sections from 11-month-old 5xFAD mice were washed with PBS (3 × 5 min) and blocked with bovine serum albumin (2% w/v BSA in PBS, pH 7.4, 10 min). Then, the sections were incubated with 25 μM of multifunctional compounds and sequentially stained with HJ3.4 antibody (Professor David Holtzman, 1 μg/mL) for 30 min. The brain sections were treated with 2% w/v BSA-PBS again for 4 min to remove any compounds or antibodies that were non-specifically binding to the tissue. Finally, the sections were washed with PBS (3 × 2 min) and DI water (2 min) and mounted with non-fluorescent mounting media (Vectashield). Colocalization analysis and determination of Pearson’s correlation coefficient were performed with the imaging software Fiji (ImageJ 1.52p). Mouse brains were harvested in compliance with the Institutional Animal Care and Use Committee of the University of Illinois at Urbana-Champaign (IACUC protocol #22094).
# [5] = molecular target: T3, soluble Aβ42 aggregates (sAβ) (Homo sapiens, UniProt P05067); test: Fluorescence spectra of compounds with soluble Aβ42 aggregates; type: binding; settings: excitation 380 nm; compound 5.0 µM in PBS with soluble Aβ aggregates
# T3 construct: commercial Aβ42 peptide (AnaSpec or GL Biochem); purchased AnaSpec or GL Biochem
# Experimental: as §1, §2
# [6] = molecular target: T4, Aβ aggregates (sAβ and Aβ fibrils) (Homo sapiens, UniProt P05067); test: Fluorescence turn-on assay with Aβ aggregates; type: binding; settings: compound 5 μM in PBS pH 7.4
# T4 construct: commercial Aβ42 peptide (AnaSpec or GL Biochem); purchased AnaSpec or GL Biochem
# Experimental: A fluorescence turn-on assay was performed to interrogate the effect of structural differences on the fluorescence enhancement with Aβ aggregates. […] Increases in fluorescence intensity with different aggregates would be ideal for tools used in amyloid-based assays. […] Without the ortho-methoxy group on the EAG, there is greater fluorescence enhancement for Aβ fibrils over sAβ for L3 and L4. […] The larger fluorescence enhancement observed for L6 than L5 indicates the dimethylamine EDG/methoxy EAG pair has a greater TICT. The piperidine-EDG-containing L7 has only slightly higher turn-on with sAβ, which may be attributed to the ortho-methoxy group on the EAG. […] In this case, it appears that the methoxy on the EAG diminishes the overall fluorescence of the compound since L8 has greater baseline fluorescence and turn-on than L7. This is also the case for the morpholine-EDG-containing L9 and L10. The lack of a methoxy group on the L10 EAG, in conjunction with the oxygen heteroatom from the morpholine EDG, electronically favors turn-on with Aβ fibrils to a slight extent. […] Changing the EDG to a methyl piperazine, L11, increases baseline fluorescence and turn-on compared to L9. […] L11 and L12, both containing an N-methyl piperazine EDG, show similar turn-on with sAβ and fibrils, and the o-methoxy EAG of L11 increases overall baseline fluorescence compared to L12. […] The spectra for the remaining compounds can be found in the Supplementary Information (Figure S1). None of the three compounds with the highest fluorescence contained an o-methoxy group on the EAG.
# as §1, with “above. […]” for “above.”
# Aβ40 peptide = molecular target: T5, Aβ40 peptide (Homo sapiens, UniProt P05067); test: Aβ40 aggregation inhibition assay monitored by ThT fluorescence; type: biochemical; settings: 25 μM Aβ40, 5 μM ThT, 5 μM compound, 37 °C, 48 h
# T5 construct: a peptide solution of 25 μM Aβ40 monomers (AnaSpec, Fremont, CA, USA) was prepared; purchased AnaSpec
# Experimental: To investigate the effect of these compounds on amyloid aggregation, inhibition of aggregation assays were performed using the Aβ40 peptide. Aβ40 has been implicated in inducing oxidative stress and is physiologically the most common isoform of the amyloid peptide and is therefore a widely used isoform in amyloid assays. Aβ40 is also known to have slower aggregation kinetics than Aβ42, which is helpful for studying the inhibition of the early aggregation pathway. […] Thus, a lower RFU can be interpreted as inhibiting the fibrillization of amyloids. The rest of the compounds show appreciable inhibition of Aβ aggregation as found in the Supplementary Materials (Figure S2), except for L9, which contains the morpholine EDG and a methoxy group on the EAG (Figure 3). The addition of the more polar oxygen heteroatom may instead favor hydrogen bonding interactions within the aqueous media, thereby solvating the compound and reducing early interactions with soluble aggregates. Lastly, although L2 and L3 show similar amyloid inhibition, the L3 compound lacking the o-methoxy group begins inhibition at an earlier time. […] This procedure was established in a previous publication.
# T1 sequence (P05067 672-713 limits assumed): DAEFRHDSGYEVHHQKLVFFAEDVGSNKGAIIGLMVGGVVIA
# T3 sequence (P05067 672-713 limits assumed): as above
# T4 sequence (P05067 672-713 limits assumed): as above
# T2 sequence (P05067 672-713 limits assumed): as above
# T5 sequence (P05067 672-711 limits assumed): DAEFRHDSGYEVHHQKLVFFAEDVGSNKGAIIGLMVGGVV
Structure (SMILES),logD [1],Compound λem (λmax of emission) [2],Compound+Fibrils λem (λmax of emission) (Aβ42 fibrils),effect on Cu-stabilized Aβ42 / Aβ42-induced toxicity [3],Pearson's coefficient (R) of colocalization with AF594-HJ3.4 [4],Compound+sAβ λem (λmax of emission) [5],fluorescence enhancement / turn-on with Aβ aggregates [6],inhibition of Aβ40 aggregation (ThT RFU) (Aβ40 peptide)
"COc1cc(/C=C/c2ccc(N(C)C)cc2)cc(CN2CCN(C)CCN(C)CC2)c1O [Compound L1, (E)-2-((4,7-dimethyl-1,4,7-triazonan-1-yl)methyl)-4-(4-(dimethylamino)styryl)-6-methoxyphenol]",1.33 ± 0.01,455 nm,455 nm,rescue cells from Cu-Aβ42 cytotoxicity,0.67,455 nm,–,–
"CNc1ccc(/C=C/c2ccc(O)c(CN3CCN(C)CCN(C)CC3)c2)cc1 [Compound L3, (E)-2-((4,7-dimethyl-1,4,7-triazonan-1-yl)methyl)-4-(4-(methylamino)styryl)phenol]",0.98 ± 0.01,455 nm,430 nm,–,0.72,430 nm,–,–
"CN1CCN(C)CCN(Cc2cc(/C=C/c3ccc(N(C)C)cc3)ccc2O)CC1 [Compound L4, (E)-2-((4,7-dimethyl-1,4,7-triazonan-1-yl)methyl)-4-(4-(dimethylamino)styryl)phenol]",1.44 ± 0.01,455 nm,435 nm,toxicity was exacerbated,0.60,435 nm,greatest overall fluorescence enhancements,greatest inhibition; also recorded: best inhibition
"CCN(CC)c1ccc(/C=C/c2cc(CN3CCN(C)CCN(C)CC3)c(O)c(OC)c2)cc1 [Compound L5, (E)-4-(4-(diethylamino)styryl)-2-((4,7-dimethyl-1,4,7-triazonan-1-yl)methyl)-6-methoxyphenol]",1.39 ± 0.01,460 nm,435 nm,rescue cells from Cu-Aβ42 cytotoxicity,0.74,435 nm,–,–
"CCN(CC)c1ccc(/C=C/c2ccc(O)c(CN3CCN(C)CCN(C)CC3)c2)cc1 [Compound L6, (E)-4-(4-(diethylamino)styryl)-2-((4,7-dimethyl-1,4,7-triazonan-1-yl)methyl)phenol]",1.37 ± 0.01,455 nm,430 nm,–,0.70,430 nm,–,–
"COc1cc(/C=C/c2ccc(N3CCCCC3)cc2)cc(CN2CCN(C)CCN(C)CC2)c1O [Compound L7, (E)-2-((4,7-dimethyl-1,4,7-triazonan-1-yl)methyl)-6-methoxy-4-(4-(piperidin-1-yl)styryl)phenol]",1.35 ± 0.02,460 nm,430 nm,–,0.66,430 nm,–,–
"CN1CCN(C)CCN(Cc2cc(/C=C/c3ccc(N4CCOCC4)cc3)ccc2O)CC1 [Compound L10, (E)-2-((4,7-dimethyl-1,4,7-triazonan-1-yl)methyl)-4-(4-morpholinostyryl)phenol]",1.03 ± 0.01,455 nm,435 nm,rescue cells from Cu-Aβ42 cytotoxicity,0.74,435 nm,highest fluorescence intensity; also recorded: greatest overall fluorescence enhancements,–
"COc1cc(/C=C/c2ccc(N3CCN(C)CC3)cc2)cc(CN2CCN(C)CCN(C)CC2)c1O [Compound L11, (E)-2-((4,7-dimethyl-1,4,7-triazonan-1-yl)methyl)-6-methoxy-4-(4-(4-methylpiperazin-1-yl)styryl)phenol]",0.85 ± 0.01,455 nm,450 nm,inhibit both Cu-stabilized Aβ42- and Aβ42-induced toxicity; also recorded: rescue cells from Cu-Aβ42 cytotoxicity,0.77,450 nm,–,–
